Test systems include SN12C renal; SF-539 CNS; DU-145 prostate; NCI-H23 lung; HOP-62 NSCLC; EKVX NSCLC; HL-60(TB) leukemia; UACC-257 melanoma; HCC-2998 colon; A549 NSCLC.
What all share (experiment): growth of human tumour cells (NCI), 48 h

Several values for one entry are separate records, joined by “and”; a condition that tells them apart may be missing. Equal entries are not always repeated.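 Briefly, cells in 96-well plates were exposed to five compound concentrations for 48 h, and endpoints were estimated by linear interpolation. Here, GI50 denotes the concentration required for 50% inhibition of growth. TGI is the concentration that stops growth completely.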

Regarding `COc1cc(Cn2c(-c3ccccc3)cc3c2-c2oncc2CC3)cc(OC)c1`, the GI50 in the assay on SN12C renal was 0.738 µM; in the assay with SF-539 CNS, 0.297 µM; in the assay with DU-145 prostate it was 0.309 µM; with NCI-H23 lung it was 0.452 µM; with HOP-62 NSCLC, 0.521 µM; with EKVX NSCLC, 0.449 µM. The values for the GI50 in the assay with HL-60(TB) leukemia, with HCC-2998 colon and with A549 NSCLC were 0.264 µM, 0.387 µM and 0.404 µM, respectively. The TGI with SN12C renal is over 100 µM; in the assay on SF-539 CNS, over 49 µM; with DU-145 prostate, 1.25 µM; with NCI-H23 lung, over 100 µM; in the assay with HOP-62 NSCLC, over 100 µM; with EKVX NSCLC, over 100 µM. Further, the TGI in the assay with HL-60(TB) leukemia is 2.73 µM; with UACC-257 melanoma, over 100 µM; in the assay with HCC-2998 colon it was over 100 µM; in the assay on A549 NSCLC, over 100 µM.

For H-QIYKKYRTWYRKAWKVLGKV-NH2, the GI50 with SN12C renal is 3.56 µM; with SF-539 CNS it was 2.21 µM; with DU-145 prostate, 3.54 µM; in the assay with NCI-H23 lung, 3.96 µM; in the assay with HOP-62 NSCLC, 5.15 µM; with EKVX NSCLC it was 3.04 µM. In addition, the GI50 with HL-60(TB) leukemia is 2.84 µM; in the assay with UACC-257 melanoma it was 13.8 µM; in the assay on HCC-2998 colon, 17.5 µM; in the assay on A549 NSCLC, 12.7 µM. Also, the TGI with SN12C renal was 15 µM; in the assay with SF-539 CNS, 4.98 µM; with DU-145 prostate it was 11.8 µM; in the assay with NCI-H23 lung, 30.1 µM; with HOP-62 NSCLC it was over 100 µM; in the assay on EKVX NSCLC, 11.7 µM. For the same molecule, the TGI in the assay on HL-60(TB) leukemia was found to be 8.76 µM; in the assay on UACC-257 melanoma, 51.6 µM; in the assay with HCC-2998 colon, 63.4 µM; in the assay with A549 NSCLC, 47.7 µM.

For the molecule `O=C(NOCCO)c1cc(CN2OCCCC2=O)c(F)c(F)c1Nc1ccc(I)cc1F`, the GI50 is 2.15 µM and 2.17 µM in the assay with SN12C renal; 8.61 µM and > 10 µM in the assay on SF-539 CNS; 12 µM and > 8.73 µM in the assay on DU-145 prostate; < 0.0222 µM and 0.0545 µM in the assay on NCI-H23 lung; 0.0195 µM in the assay on HOP-62 NSCLC; 0.0599 µM and 0.0806 µM in the assay with EKVX NSCLC. In addition, the GI50 in the assay on HL-60(TB) leukemia was < 0.01 µM and 0.00194 µM; in the assay with UACC-257 melanoma, < 0.01 µM and 0.00204 µM; with HCC-2998 colon it was < 0.0111 µM and 0.00172 µM; in the assay with A549 NSCLC it was 0.464 µM and 0.156 µM. Further, the TGI was over 100 µM with SN12C renal; 66 µM and > 10 µM with SF-539 CNS; over 100 µM in the assay with DU-145 prostate; 26.5 µM and > 10 µM in the assay with NCI-H23 lung; over 100 µM in the assay on HOP-62 NSCLC; over 74.5 µM in the assay with EKVX NSCLC. Moreover, the TGI was over 57 µM with HL-60(TB) leukemia; 0.0393 µM and < 0.0128 µM with UACC-257 melanoma; over 86.2 µM in the assay with A549 NSCLC.

As to `C=CC(C)(O)CC/C=C(\CO)C(=O)OC1C(C)OC(O[C@](C)(C=C)CC/C=C(\CO)C(=O)O[C@H]2C[C@@]3(C(=O)OC4OC(CO)C(O)C(O)C4OC4OC(C)C(OC5OC(CO)C(O)C5O)C(OC5OC(CO)C(O)C(O)C5O)C4O)C(CC2(C)C)C2=CCC4[C@@]5(C)CC[C@H](OC6OC(COC7OC(C)C(O)C(O)C7OC7OCC(O)C(O)C7O)C(O)C(O)C6NC(C)=O)C(C)(C)C5CC[C@@]4(C)[C@]2(C)C[C@H]3O)C(O)C1O` (stereo partly drawn), the GI50 was 0.0798 µM with SN12C renal; 4.86 µM in the assay with SF-539 CNS; 0.131 µM in the assay on DU-145 prostate; 2.01 µM in the assay on NCI-H23 lung; 0.275 µM with HOP-62 NSCLC; 0.901 µM in the assay on EKVX NSCLC. For the same molecule, the GI50 in the assay on HL-60(TB) leukemia was 0.13 µM; in the assay on UACC-257 melanoma, 0.461 µM; in the assay on HCC-2998 colon it was 0.0688 µM; with A549 NSCLC, 0.286 µM. Also, the TGI with SN12C renal was 0.343 µM; with SF-539 CNS, 9.77 µM; in the assay on DU-145 prostate it was 0.512 µM; in the assay on NCI-H23 lung, 7.49 µM; with HOP-62 NSCLC it was 1.58 µM; in the assay on EKVX NSCLC it was 5.02 µM. Moreover, the TGI with HL-60(TB) leukemia was 2.53 µM; in the assay on UACC-257 melanoma, 1.47 µM; in the assay on HCC-2998 colon, 0.195 µM; in the assay with A549 NSCLC, 1.49 µM.

Regarding `CC(N1CCOCC1)C(O)(c1ccccc1)c1ccccn1` (stereo not drawn), the TGI in the assay with SN12C renal, in the assay on SF-539 CNS, with DU-145 prostate, with NCI-H23 lung, in the assay on HOP-62 NSCLC and with EKVX NSCLC was over 100 µM throughout. In addition, the TGI is over 100 µM with HL-60(TB) leukemia, over 100 µM in the assay on UACC-257 melanoma, 38.9 µM in the assay on HCC-2998 colon and over 100 µM in the assay on A549 NSCLC.

Regarding `O=C1/C(=C\c2ccccc2)C2OCC=C3CN4CCC56c7ccccc7N1C5C2C3CC46` (stereo not drawn), the GI50 is 26.2 µM in the assay on SN12C renal; 61.9 µM with SF-539 CNS; over 100 µM with DU-145 prostate; over 100 µM with NCI-H23 lung; 54.3 µM in the assay with HOP-62 NSCLC; 70.5 µM in the assay with EKVX NSCLC. For the same molecule, the GI50 is 3.47 µM in the assay with HL-60(TB) leukemia, 2.16 µM in the assay with UACC-257 melanoma, 4.93 µM with HCC-2998 colon and over 100 µM with A549 NSCLC. In addition, the TGI in the assay on SN12C renal, with SF-539 CNS, in the assay with DU-145 prostate, in the assay on NCI-H23 lung, in the assay with HOP-62 NSCLC and in the assay on EKVX NSCLC was over 100 µM each time. The TGI in the assay on HL-60(TB) leukemia was 20.9 µM; in the assay with UACC-257 melanoma it was 4.11 µM; in the assay on HCC-2998 colon, over 100 µM; in the assay with A549 NSCLC, over 100 µM.

On to `O=C(/C=C/c1ccc([N+](=O)[O-])cc1)c1cccc(Nc2nc(Nc3ccccc3)nc(Nc3ccccc3)n2)c1`, for which the GI50 in the assay on SN12C renal is 26.8 µM; in the assay on SF-539 CNS it was 12.7 µM; in the assay with DU-145 prostate it was 28.2 µM; in the assay with NCI-H23 lung, 17.5 µM; in the assay with HOP-62 NSCLC it was 32.2 µM; in the assay on EKVX NSCLC, 22.3 µM. Also, the GI50 is 8.82 µM in the assay on HL-60(TB) leukemia, 68.7 µM in the assay on UACC-257 melanoma, 18.1 µM in the assay on HCC-2998 colon and 25 µM in the assay on A549 NSCLC. Besides, the TGI with SN12C renal is over 100 µM; in the assay with SF-539 CNS it was 35.5 µM; with DU-145 prostate, over 100 µM; with NCI-H23 lung, 98.3 µM; in the assay on HOP-62 NSCLC, over 100 µM; in the assay on EKVX NSCLC it was over 100 µM. Further, the TGI in the assay with HL-60(TB) leukemia was 37.7 µM; with UACC-257 melanoma it was over 100 µM; in the assay on HCC-2998 colon, 68.6 µM; in the assay with A549 NSCLC, over 100 µM.

On to `O=C(/C=C/c1cccc2ccccc12)Nc1ncc(Cc2ccccc2)s1`, for which the GI50 was 1.16 µM in the assay on SN12C renal; 0.716 µM in the assay on SF-539 CNS; 1.61 µM in the assay on DU-145 prostate; 1.58 µM in the assay on NCI-H23 lung; 0.885 µM in the assay on HOP-62 NSCLC; 1.12 µM in the assay on EKVX NSCLC. The GI50 was 0.669 µM with HL-60(TB) leukemia, 4.97 µM in the assay on UACC-257 melanoma, 2.57 µM with HCC-2998 colon and 1.32 µM in the assay with A549 NSCLC. In addition, the TGI in the assay on SN12C renal is over 100 µM; with SF-539 CNS, 2.92 µM; in the assay on DU-145 prostate it was over 100 µM; with NCI-H23 lung, over 100 µM; with HOP-62 NSCLC it was 4.56 µM; in the assay with EKVX NSCLC, over 100 µM. Further, the TGI in the assay with HL-60(TB) leukemia was 3.58 µM; in the assay with UACC-257 melanoma it was over 100 µM; in the assay with HCC-2998 colon, over 100 µM; in the assay with A549 NSCLC it was over 66.3 µM.

With `Nc1ccn(C2OC(C(OC3OC(CO)C(O)C(N)C3O)C(O)C(O)C(O)C(O)CO)C(N)C(O)C2O)c(=O)n1` (stereo not drawn), the TGI in the assay on SN12C renal was over 100 µM; with SF-539 CNS it was 78.6 µM; with DU-145 prostate, over 100 µM; in the assay on NCI-H23 lung, over 100 µM; in the assay with HOP-62 NSCLC, over 100 µM; in the assay with EKVX NSCLC, over 100 µM. The TGI is over 100 µM in the assay with HL-60(TB) leukemia, over 100 µM in the assay with UACC-257 melanoma, 32.9 µM in the assay on HCC-2998 colon and over 100 µM in the assay with A549 NSCLC.

For the molecule `COc1ccc2c(c1)/C(=N/OC(C)=O)c1c-2cnc2ccccc12`, the GI50 with SN12C renal was 18.9 µM; in the assay on SF-539 CNS, 41.9 µM; with DU-145 prostate, 36 µM; in the assay with NCI-H23 lung, 46.6 µM; in the assay with HOP-62 NSCLC it was 20.8 µM; in the assay on EKVX NSCLC, 23.1 µM. The GI50 in the assay on HL-60(TB) leukemia is 19.6 µM; in the assay with UACC-257 melanoma, 61.1 µM; with HCC-2998 colon it was 39.1 µM; with A549 NSCLC, 27.4 µM. For the same molecule, the TGI with SN12C renal was 36.3 µM; with SF-539 CNS it was over 100 µM; in the assay on DU-145 prostate, over 100 µM; with NCI-H23 lung, over 100 µM; in the assay with HOP-62 NSCLC it was 46.6 µM; with EKVX NSCLC, over 100 µM. The TGI in the assay with HL-60(TB) leukemia was 67 µM; in the assay with UACC-257 melanoma, over 100 µM; with HCC-2998 colon it was over 100 µM; in the assay with A549 NSCLC, 73.8 µM.
